# Patent publication US6660741B2, “Asymmetric synthesis of (S,S,R)-(-)-actinonin and its analogs and uses therefor” (Sloan-Kettering Institute for Cancer Research, priority 2001, dated 2003)
# Like-named read-outs stand apart in the source and are kept apart here.
# Assays:
# Daudi and HL60 cells = test: Thymidine incorporation, summary statement on cell growth (Daudi and HL60); assay type: cell-based; settings: summary of Tables 4 and 5
# Procedure: (§1) Actinonin was purchased from Sigma (St. Louis, Mo.). Biotinylated-Actinonin and all analogs were synthesized. Actinonin stock solution was 5 mg/ml in 10% ethanol. Biotinylated-actinonin and all other analogs were diluted in 10% DMSO to give stock solutions in the range of 1-20 mg/ml.
# (§2) Daudi (B lineage Burkitt's lymphoma, CD13 negative) and HL60 (acute myeloid leukemia, CD13 positive) cells were maintained in culture using RPMI 1640 supplemented with 10% heat-inactivated FBS (Omega Scientific, Inc., Tarzana, Calif.) and 1% L-glutamine (Gibco/Invitrogen, Carlsbad, Calif.) at 37° C. in a humidified atmosphere of 5% CO2. Cell viability was higher than 90%, and cells were free of mycoplasma contamination.
# (§3) An aliquot of 200 ul of cells (10,000 cells/well) was washed and incubated at 37° C. in 96-well plates in the presence or absence of actinonin/analogs. Serial dilutions were made in complete media. After 5 days of incubation, 50 ul of 10 uCi/mL tritiated thymidine (PerkinElmer, Boston, Mass.) was added to each well and allowed to incorporate for 5 hours. Plates were frozen at −80° C. overnight and cells were harvested onto filtermats (Wallac, Finland) using a semi-automatic harvester (Skatron, Sterling, Va.). Filtermats were counted in a 1205 Betaplate™ liquid scintillation counter (Wallac, Finland). The reference numbers refer to those analogs disclosed in Example 6. Compounds 35, 42, 48, 52, 53, and 56 are effective at inhibiting cell growth.
# [1] = test system: HL60 (acute myeloid leukemia, CD13 positive) cells; test: Inhibition of tritiated thymidine incorporation, 5 day, HL60; assay type: cell-based; settings: Homo sapiens, HL-60, 120 h, HL60, 5 days
# Procedure: as §1, §2, §3
# [2] = test system: Daudi (B lineage Burkitt's lymphoma, CD13 negative) cells; test: Inhibition of tritiated thymidine incorporation, 5 day, Daudi; assay type: cell-based; settings: Homo sapiens, 120 h, 5 days
# Procedure: as §1, §2, §3
# SK-LC-8 = test: XTT cytotoxicity assay, 5-day culture, SK-LC-8; assay type: cell-based; settings: Homo sapiens, 120 h, SK-LC-8, NSCLC-AdCa, 5 days, read-out: IC50 (μM ± SEM)
# Procedure: (§4) Actinonin was assayed for cytotoxity in human ovarian carcinoma, prostate carcinoma, mammary carcinoma, head and neck squamous cell carcinoma (HNSSC), non-small-cell-lung-cancer adenocarcinoma (NSCLC-AdCa), and non-small-cell-lung-cancer squamous cells (NSCLC-SSC) (15). Actinonin was also tested against acute mylegenous leukemia (AML) cells.
# [3] = test system: all the cell lines tested; test: Cytotoxicity of actinonin, summary over all cell lines tested; assay type: cell-based, human; settings: in the μM range
# Procedure: as §4
# PC-3 = test: XTT cytotoxicity assay, 5-day culture, PC-3; assay type: cell-based; settings: Homo sapiens, 120 h, PC-3, Prostate Ca, 5 days, read-out: IC50 (μM ± SEM)
# Procedure: as §4
# AKR leukemia = settings: cited from earlier work
# A2780 = test: XTT cytotoxicity assay, 5-day culture, A2780; assay type: cell-based; settings: Homo sapiens, 120 h, A2780, Ovarian Ca, 5 days, read-out: IC50 (μM ± SEM)
# Procedure: as §4
# SK-BRIII = test: XTT cytotoxicity assay, 5-day culture, SK-BRIII; assay type: cell-based; settings: Homo sapiens, 120 h, Mammary Ca, 5 days, read-out: IC50 (μM ± SEM)
# Procedure: as §4
# HL-60 = test: XTT cytotoxicity assay, 5-day culture, HL-60; assay type: cell-based; settings: Homo sapiens, 120 h, HL-60, PML, 5 days, read-out: IC50 (μM ± SEM)
# Procedure: as §4
# TSU-PR^1 = test: XTT cytotoxicity assay, 5-day culture, TSU-PR1; assay type: cell-based; settings: Homo sapiens, 120 h, TSU-PR1, Prostate Ca, 5 days, read-out: IC50 (μM ± SEM)
# Procedure: as §4
# DU-145 = test: XTT cytotoxicity assay, 5-day culture, DU-145; assay type: cell-based; settings: Homo sapiens, 120 h, DU-145, Prostate Ca, 5 days, read-out: IC50 (μM ± SEM)
# Procedure: as §4
# HT1080 = test: XTT cytotoxicity assay, 5-day culture, HT1080; assay type: cell-based; settings: Homo sapiens, HT-1080, 120 h, HT1080, HNSSC, 5 days, read-out: IC50 (μM ± SEM)
# Procedure: as §4
# [4] = test system: CWR22 human prostate tumor; settings: for Change in tumor Vol. (mm^3): initial 45 mm^3; for Ave. Tumor Diameter (mm ± SEM): initial tumor diameter 4.4
# Procedure: Actinonin was also evaluated against the CWR22 human prostate tumor xenografted in nude mice (15).
# tumor cell lines = settings: cited from earlier work
# MDA-MB468 = test: XTT cytotoxicity assay, 5-day culture, MDA-MB468; assay type: cell-based; settings: Homo sapiens, MDA-MB-468, 120 h, MDA-MB468, Mammary Ca, 5 days, read-out: IC50 (μM ± SEM)
# Procedure: as §4
# [5] = test system: human leukemia and lymphoma cells; settings: cited from earlier work
# SK-LC-16 = test: XTT cytotoxicity assay, 5-day culture, SK-LC-16; assay type: cell-based; settings: Homo sapiens, 120 h, SK-LC-16, NSCLC-SSC, 5 days, read-out: IC50 (μM ± SEM)
# Procedure: as §4
# [6] = read-out: HL60 IC50 (uM), 5 day thymidine incorporation
# [7] = read-out: HL60 IC50 (ug/mL), 5 day thymidine incorporation
# [8] = read-out: Daudi IC50 (uM), 5 day thymidine incorporation
# [9] = read-out: Daudi IC50 (ug/mL), 5 day thymidine incorporation
smiles,measurement,setting,value
"CCCCC[C@H](CC(=O)NO)C(=O)N[C@H](C(=O)N1CCC[C@H]1C(=O)O)C(C)C [Compound 56, N4-hydroxy-N1-(1-(2-carboxy-pyrrolidine-1-carbonyl)-2-methyl-propyl)-2-pentyl-succinamide]",inhibiting cell growth,Daudi and HL60 cells,effective
same,IC50,[1]; [6],> 251 µM
same,IC50,[1]; [7],> 100 µg/mL
same,IC50,[2]; [8],> 251 µM
same,IC50,[2]; [9],> 100 µg/mL
CCCCC[C@H](CC(=O)NO)C(=O)N[C@@H](Cc1ccccc1)C(=O)N1CCC[C@H]1C [Compound 52],inhibiting cell growth,Daudi and HL60 cells,effective
same,IC50,[1]; [6],12.1 µM
same,IC50,[1]; [7],5.2 µg/mL
same,IC50,[2]; [8],2.7 µM
same,IC50,[2]; [9],1.2 µg/mL
"CCCCC[C@H](CC(=O)NO)C(=O)N[C@@H](Cc1ccccc1)C(=O)N1CCC[C@H]1CO [Compound 42, N1-(1-benzyl-2-(2-hydroxymethyl-pyrrolidin-1-yl)-2-oxo-ethyl)-N4-hydroxy-2-pentyl-succinamide]",inhibiting cell growth,Daudi and HL60 cells,effective
same,IC50,[1]; [6],15.8 µM
same,IC50,[1]; [7],7.1 µg/mL
same,IC50,[2]; [8],12.9 µM
same,IC50,[2]; [9],5.8 µg/mL
"CCCCC[C@H](CC(=O)NO)C(=O)N[C@@H](CC(C)C)C(=O)N1CCC[C@H]1CO [Compound 35, N4-hydroxy-N1-(1-(2-hydroxymethyl-pyrrolidine-1-carbonyl)-3-methyl-butyl)-2-pentyl-succinamide]",inhibiting cell growth,Daudi and HL60 cells,effective
same,IC50,[1]; [6],17.7 µM
same,IC50,[1]; [7],7.1 µg/mL
same,IC50,[2]; [8],14.1 µM
same,IC50,[2]; [9],5.7 µg/mL
"CC(C)[C@H](NC(=O)[C@H](C)CC(=O)NO)C(=O)N1CCC[C@H]1CO [Compound 48, N4-hydroxy-N1-(1-(2-hydroxymethyl-pyrrolidine-1-carbonyl)-2-methyl-propyl)-2-methyl-succinamide]",inhibiting cell growth,Daudi and HL60 cells,effective
same,IC50,[1]; [6],29.5 µM
same,IC50,[1]; [7],10.5 µg/mL
same,IC50,[2]; [8],22.4 µM
same,IC50,[2]; [9],8 µg/mL
"CCCCC[C@H](CC(=O)NO)C(=O)N[C@H](C(=O)N1CCC[C@H]1CO)C(C)C [Actinonin, (S,S,R)-(−)-Actinonin]",IC50,SK-LC-8,14 ± 2 µM
same,cytotoxicity against all the cell lines tested,[3],remarkably cytotoxic
same,IC50,PC-3,10 ± 1 µM
same,treatment of AKR leukemia,AKR leukemia; AKR mice,treats AKR leukemia
same,toxicity in AKR mice,"AKR leukemia; mouse, in vivo",minimal toxicity
same,IC50,A2780,4.8 ± 1 µM
same,IC50,SK-BRIII,7.9 ± 1 µM
same,IC50,HL-60,6.8 ± 1 µM
same,IC50,TSU-PR^1,9.1 ± 1.5 µM
same,IC50,DU-145,17 µM
same,IC50,HT1080,11 ± 2 µM
same,IC50,[1]; [6],10.6 µM
same,IC50,[1]; [7],4.1 µg/mL
same,IC50,[2]; [8],6.7 µM
same,IC50,[2]; [9],2.6 µg/mL
same,Inhibition T/C %,[4]; 300 mg/kg ip,97%
same,Change in tumor Vol. (mm^3),[4]; 300 mg/kg ip,+36 mm^3
same,Ave. Tumor Diameter (mm ± SEM),[4]; 300 mg/kg ip,5.4 ± 1 mm
same,Inhibition T/C %,[4]; 600 mg/kg ip,88%
same,Change in tumor Vol. (mm^3),[4]; 600 mg/kg ip,+142 mm^3
same,Ave. Tumor Diameter (mm ± SEM),[4]; 600 mg/kg ip,7.1 ± 2 mm
same,tumor growth inhibition,[4]; at a dose slightly below the maximum tolerated dose (MTD) for the mouse,excellent tumor growth inhibition
same,cytotoxicity towards tumor cell lines in vitro,tumor cell lines,exhibits cytotoxicity
same,IC50,MDA-MB468,7.1 ± 1 µM
same,cell cycle arrest and apoptosis,[5],induces GI arrest and apoptosis
same,IC50,SK-LC-16,12 ± 2 µM
